Reference: patent US12077503B2, “Substituted cyclic amides and their use as herbicides” (FMC CORPORATION, priority 2015, dated 2024)
Like-named read-outs stand apart in the source and are kept apart here.

Assays:
Type in all cases: in vivo
[1] = test system: sedge, umbrella (small-flower umbrella sedge, Cyperus difformis); test: Test B flooded paddy test; settings: Cyperus difformis, Flood, 250 g ai/ha
In short: (§1)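 Greenhouse paddy pots with 2-leaf stage plants received compound by direct addition to floodwater 3 cm deep, kept at that level. Scored visually at 13–15 d versus controls (0 no effect; 100 complete control).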

[2] = test system: barnyardgrass (Echinochloa crus-galli); test: Test B flooded paddy test; settings: Echinochloa crus-galli, Flood, 250 g ai/ha
In short: as §1

rice (Oryra sativa) = test: Test B flooded paddy test; settings: Oryza sativa, Flood, 250 g ai/ha
In short: as §1

[3] = test system: ducksalad (Heteranthera limosa); test: Test B flooded paddy test; settings: Heteranthera limosa, Flood, 250 g ai/ha
In short: as §1

[4] = test system: ryegrass, Italian (Italian ryegrass, Lolium multiflorum); test: Test A postemergence; settings: Lolium multiflorum, post-emergence, 240 h, read-out: Plant response rating, Ryegrass, Italian; for pest or weed control at 125 g/ha: 125 g ai/ha; for pest or weed control at 500 g/ha: 500 g ai/ha, visual injury, approx. 10 d
In short: (§2)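 Preemergence directed soil spray on seeded pots, or postemergence application to plants 2–10 cm, one- to two-leaf. Solvent mixture non-phytotoxic, with surfactant. Scored ~10 d later, visually, 0–100 vs untreated.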

[5] = test system: blackgrass (Alopecurus myosuroides); test: Test A postemergence; settings: Alopecurus myosuroides, post-emergence, 240 h, read-out: Plant response rating, Blackgrass; for pest or weed control at 125 g/ha: 125 g ai/ha; for pest or weed control at 500 g/ha: 500 g ai/ha, visual injury, approx. 10 d
In short: as §2

Kochia (Kochia scoparia) = test: Test A postemergence; settings: Bassia scoparia, post-emergence, 240 h, read-out: Plant response rating, Kochia; for pest or weed control at 125 g/ha: 125 g ai/ha; for pest or weed control at 500 g/ha: 500 g ai/ha, visual injury, approx. 10 d
In short: as §2

[6] = test system: barnyardgrass (Echinochloa crus-galli); test: Test A postemergence; settings: Echinochloa crus-galli, post-emergence, 240 h, read-out: Plant response rating, Barnyardgrass; for pest or weed control at 125 g/ha: 125 g ai/ha; for pest or weed control at 500 g/ha: 500 g ai/ha, visual injury, approx. 10 d
In short: as §2

[7] = test system: pigweed (Amaranthus retroflexus); test: Test A postemergence; settings: Amaranthus retroflexus, post-emergence, 240 h, read-out: Plant response rating, Pigweed; for pest or weed control at 125 g/ha: 125 g ai/ha; for pest or weed control at 500 g/ha: 500 g ai/ha, visual injury, approx. 10 d
In short: as §2

[8] = test system: giant foxtail (Setaria faberii); test: Test A postemergence; settings: Setaria faberi, post-emergence, 240 h, read-out: Plant response rating, Foxtail, Giant; for pest or weed control at 125 g/ha: 125 g ai/ha; for pest or weed control at 500 g/ha: 500 g ai/ha, visual injury, approx. 10 d
In short: as §2

[9] = test system: ragweed (common ragweed, Ambrosia elatior); test: Test A postemergence; settings: Ambrosia artemisiifolia, post-emergence, 240 h, read-out: Plant response rating, Ragweed; for pest or weed control at 125 g/ha: 125 g ai/ha; for pest or weed control at 500 g/ha: 500 g ai/ha, visual injury, approx. 10 d
In short: as §2

corn (Zea mays) = test: Test A postemergence; settings: Zea mays, post-emergence, 240 h; for Corn plant response rating (crop injury, 0 = no effect, 100 = complete kill) at 125 g/ha: 125 g ai/ha; for Corn plant response rating (crop injury, 0 = no effect, 100 = complete kill) at 500 g/ha: 500 g ai/ha, visual injury, approx. 10 d
In short: as §2

[10] = test system: Galium (catchweed bedstraw, Galium aparine); test: Test A postemergence; settings: Galium, post-emergence, 240 h, read-out: Plant response rating, Galium; for pest or weed control at 125 g/ha: 125 g ai/ha; for pest or weed control at 500 g/ha: 500 g ai/ha, visual injury, approx. 10 d
In short: as §2

[11] = test system: wheat (Triticum aestivum); test: Test A postemergence; settings: Triticum aestivum, post-emergence, 240 h, read-out: Plant response rating, Wheat; for plant injury at 125 g/ha: 125 g ai/ha; for plant injury at 500 g/ha: 500 g ai/ha, visual injury, approx. 10 d
In short: as §2

[12] = 360 h, visually evaluated after 13 to 15 d, read-out: Plant response rating, Sedge, Umbrella (0 to 100 scale where 0 is no effect and 100 is complete control)
[13] = 360 h, visually evaluated after 13 to 15 d, read-out: Plant response rating, Barnyardgrass (0 to 100 scale where 0 is no effect and 100 is complete control)
[14] = 360 h, visually evaluated after 13 to 15 d, read-out: Plant response rating, Rice (0 to 100 scale where 0 is no effect and 100 is complete control)
[15] = 360 h, visually evaluated after 13 to 15 d, read-out: Plant response rating, Ducksalad (0 to 100 scale where 0 is no effect and 100 is complete control)
[16] = Postemergence, visual injury after approx. 10 d, 0 to 100 scale, 0 no effect, 100 complete control
[17] = Postemergence, 0 to 100 scale (0 no effect, 100 complete control)
[18] = scale of 0 to 100 where 0 is no effect and 100 is complete control, read-out: Sedge, Umbrella plant response rating
[19] = scale of 0 to 100 where 0 is no effect and 100 is complete control, read-out: Barnyardgrass plant response rating
[20] = scale of 0 to 100 where 0 is no effect and 100 is complete control, read-out: Rice plant response rating
[21] = scale of 0 to 100 where 0 is no effect and 100 is complete control, read-out: Ducksalad plant response rating
[22] = postemergence, visual injury after approximately 10 d, 0 to 100 scale (0 no effect, 100 complete control)

SMILES	pest or weed control at 250 g/ha [1, 12] [%]	pest or weed control at 250 g/ha [2, 13] [%]	pest or weed control at 250 g/ha (rice (Oryra sativa); [14]) [%]	pest or weed control at 250 g/ha [3, 15] [%]	pest or weed control at 125 g/ha [4, 16] [%]	pest or weed control at 500 g/ha [4, 17] [%]	pest or weed control at 125 g/ha [5, 16] [%]	pest or weed control at 500 g/ha [5, 17] [%]	pest or weed control at 125 g/ha (Kochia (Kochia scoparia); [16]) [%]	pest or weed control at 500 g/ha (Kochia (Kochia scoparia); [17]) [%]	pest or weed control at 125 g/ha [6, 16] [%]	pest or weed control at 500 g/ha [6, 17] [%]	pest or weed control at 125 g/ha [7, 16] [%]	pest or weed control at 500 g/ha [7, 17] [%]	pest or weed control at 125 g/ha [8, 16] [%]	pest or weed control at 500 g/ha [8, 17] [%]	pest or weed control at 125 g/ha [9, 16] [%]	pest or weed control at 500 g/ha [9, 17] [%]	Corn plant response rating (crop injury, 0 = no effect, 100 = complete kill) at 125 g/ha (corn (Zea mays); [16]) [%]	Corn plant response rating (crop injury, 0 = no effect, 100 = complete kill) at 500 g/ha (corn (Zea mays); [17]) [%]	further results
O=C1NC[C@H](c2nccc(C(F)(F)F)n2)[C@H]1C(=O)Nc1cccc(F)c1F [Compound 1392]	0	0	0	30	0	0	0	0	0	0	0	40	0	0	0	30	0	0	0	20	pest or weed control at 125 g/ha [10, 16]: 0%; pest or weed control at 500 g/ha [10, 17]: 0%; plant injury at 125 g/ha [11, 16]: 0%; plant injury at 500 g/ha [11, 17]: 30%
Cc1c(F)cccc1NC(=O)[C@H]1C(=O)N(C)C[C@@H]1c1ccc(C(F)(F)F)cc1 [Compound 1386]	0	55	0	100	40	60	70	80	70	70	90	90	40	70	90	90	20	50	70	80	pest or weed control at 125 g/ha [10, 16]: 60%; pest or weed control at 500 g/ha [10, 17]: 60%; plant injury at 125 g/ha [11, 16]: 50%; plant injury at 500 g/ha [11, 17]: 60%
CN1C[C@H](c2cccc([N+](=O)[O-])c2)[C@@H](C(=O)Nc2cccc(F)c2F)C1=O (racemic) [Compound 776]	–	–	–	–	–	–	–	–	–	–	–	–	–	–	–	–	–	–	–	–	pest or weed control at 250 g/ha [1, 18]: 0%; pest or weed control at 250 g/ha [2, 19]: 80%; pest or weed control at 250 g/ha (rice (Oryra sativa); [20]): 0%; pest or weed control at 250 g/ha [3, 21]: 80%; pest or weed control at 125 g/ha [4, 22]: 20%; pest or weed control at 125 g/ha [5, 22]: 30%; pest or weed control at 125 g/ha (Kochia (Kochia scoparia); [22]): 20%; pest or weed control at 125 g/ha [6, 22]: 80%; pest or weed control at 125 g/ha [7, 22]: 0%; pest or weed control at 125 g/ha [8, 22]: 80%; pest or weed control at 125 g/ha [9, 22]: 0%; Corn plant response rating (crop injury, 0 = no effect, 100 = complete kill) at 125 g/ha (corn (Zea mays); [22]): 30%; pest or weed control at 125 g/ha [10, 22]: 20%; plant injury at 125 g/ha [11, 22]: 30%
CSc1ccccc1NC(=O)[C@H]1C(=O)N(C)C[C@@H]1c1cc(F)cc(F)c1 [Compound 738]	–	–	–	–	–	–	–	–	–	–	–	–	–	–	–	–	–	–	–	–	pest or weed control at 250 g/ha [1, 18]: 0%; pest or weed control at 250 g/ha [2, 19]: 40%; pest or weed control at 250 g/ha (rice (Oryra sativa); [20]): 0%; pest or weed control at 250 g/ha [3, 21]: 100%; pest or weed control at 125 g/ha [4, 22]: 0%; pest or weed control at 125 g/ha [5, 22]: 0%; pest or weed control at 125 g/ha (Kochia (Kochia scoparia); [22]): 20%; pest or weed control at 125 g/ha [6, 22]: 80%; pest or weed control at 125 g/ha [7, 22]: 20%; pest or weed control at 125 g/ha [8, 22]: 70%; pest or weed control at 125 g/ha [9, 22]: 0%; Corn plant response rating (crop injury, 0 = no effect, 100 = complete kill) at 125 g/ha (corn (Zea mays); [22]): 20%; pest or weed control at 125 g/ha [10, 22]: 50%; plant injury at 125 g/ha [11, 22]: 0%
